Earlier results on one compound are cited in patent US20240285636A1, “PHARMACEUTICAL COMPOSITION AND USE OF THE PHARMACEUTICAL COMPOSITION” (LIBBS FARMACÊUTICA LTDA, priority 2021, published 2024).

For this data set the following is noted: class IV = low solubility and low permeability.

For the compound `CCCSc1nc(N[C@@H]2C[C@H]2c2ccc(F)c(F)c2)c2nnn([C@@H]3C[C@H](OCCO)[C@@H](O)[C@H]3O)c2n1` (relative stereo) [Ticagrelor, {1S-[1α,2α,3β(1S*,2R*),5β}-3-(7-{[2-(3,4-difluorophenyl)-cyclopropyl]amino}-5-(propylthio)-3H-1,2,3-triazol[4,5-d]pyrimidin-3-yl)-5-(2-hydroxyethoxy)cyclopentane-1,2-diol], the “Biopharmaceutical Classification System class” value is recorded as “class IV”.
